# Where a name gives a salt, the structure may show the parent alone. Read-outs that look alike come from different tables or passages of the source.
# Legend:
# [1] = test system: survival of cerebral tissue during acute hypoxia; assay: Acute hypobaric hypoxia in mice, survival time of the brain (final respiratory gasp); format: in vivo, mice (male CD1)
# Description: (§1) The compounds of the present invention were tested in respect of their capacity to prolong the survival of cerebral tissue during acute hypoxia in mice, or to maintain the level of tissue energy-rich compounds in rats subjected to a fall in the oxygen supply [Pharmacology of Cerebral Ischemia, ([…]) p. 334-339 Elsevier Science Publishers B.V., J. Krieglstein ed.]. […] Forsch. Drug Res. (1986), 36 II No. 9, p. 1314-1320].
# The survival of the brain is assessed by measuring the time at which the final respiratory gasp is observed.
# The survival time of a treated batch is compared with that of a control batch receiving only the solvent.
# [2] = test system: tissue energy-rich compounds (ATP, ADP, AMP) of the brain; assay: Acute normobaric hypoxia in rats, brain tissue energy-rich compounds (ATP level and energy content); format: in vivo, rats (male Fischer 344); details: for % inhibition of the effects of hypoxia: ATP / % inhibition of the effects of hypoxia: EC (energy content): 3% oxygen for 2 minutes
# Description: as §1
# Whereas the control rats breathe a gaseous mixture containing 21% of oxygen and 79% of nitrogen, the rats subjected to hypoxia breath a mixture of 3% oxygen and 97% nitrogen for 2 minutes.
# At the end of the hypoxic period, the animals are rapidly sacrificed by total immersion in liquid nitrogen. The frozen brain is removed and the energy-rich compounds (ATP, ADP, AMP) are extracted and assayed by the luciferin luminescence method.
# The tissue energy content (EC) is calculated according to ATKINSON's formula: [formula]
# [3] = Mus musculus, ip, 30 mg/kg I.P., 30 minutes before hypoxia (160 mbar), mice, vs control batch, read-out: Percentage increase in the survival time
# [4] = Mus musculus, ip, 100 mg/kg I.P., 30 minutes before hypoxia (160 mbar), mice, vs control batch, read-out: Percentage increase in the survival time
# [5] = Mus musculus, ip, read-out: Percentage increase in the survival time
# [6] = 100 mg/kg I.P., listed as pyritinol
smiles,measurement,setting,value
"NC(=O)Cc1ccc2c(c1)C(c1ccccc1)C(=O)O2 (centres unmarked) [Example 1, 2-(2,3-Dihydro-2-oxo-3-phenyl-5-benzofuranyl)acetamide]",ILS at 3 mg/kg,"[1]; Mus musculus, ip, 3 mg/kg I.P., 30 minutes before hypoxia (160 mbar), mice, vs control batch, read-out: Percentage increase in the survival time",24%
same,ILS at 30 mg/kg,[1]; [3],46%
same,ILS at 100 mg/kg,[1]; [4],170%
same,% inhibition of the effects of hypoxia: ATP,[2]; 30 mg/kg I.P.,64.6%
same,% inhibition of the effects of hypoxia: EC (energy content),[2]; 30 mg/kg I.P.,66%
same,effect on the ATP level and the energy content (in words),"[2]; 30 mg/kg, compared with meclofenoxate 300 mg/kg",Such an effect is observed with a dose of 30 mg/kg
"O=C1Oc2ccc(CC(=O)N3CCN(c4ccc(C(F)(F)F)cn4)CC3)cc2C1c1ccccc1 (centres unmarked) [Example 3, 2-(2,3-Dihydro-2-oxo-3-phenyl-5-benzofuranyl)-1-[4-(5-trifluoromethyl-2-pyridyl)piperazinyl]-1-oxoethane]",ILS at 30 mg/kg,[1]; [3],36%
same,ILS at 100 mg/kg,[1]; [4],57%
O=C1Oc2ccc(CC(=O)N3CCN(Cc4ccc5c(c4)OCO5)CC3)cc2C1c1ccccc1 (centres unmarked) [Example 4],ILS at 3 mg/kg,[1]; [5],43%
same,ILS at 10 mg/kg,[1]; [5],49%
same,ILS at 30 mg/kg,[1]; [5],54%
same,ILS at 100 mg/kg,[1]; [5],133%
"CN1CCN(C(=O)Cc2ccc3c(c2)C(c2ccccc2)C(=O)O3)CC1 (centres unmarked) [Example 5, 2-(2,3-Dihydro-2-oxo-3-phenyl-5-benzofuranyl)-1-(4-methylpiperazinyl)-1-oxoethane tartrate]",ILS at 100 mg/kg,[1]; [5],111%
"NC(=O)Cc1cccc2c1OC(=O)C2c1ccccc1 (centres unmarked) [Example 8, 2-(2,3-Dihydro-2-oxo-3-phenyl-7-benzofuranyl)acetamide]",ILS at 100 mg/kg,[1]; [4],13%
"NC(=O)Cc1cc(Cl)cc2c1OC(=O)C2c1ccccc1 (centres unmarked) [Example 9, 2-(5-Chloro-2,3-dihydro-2-oxo-3-phenyl-7-benzofuranyl)acetamide]",ILS at 100 mg/kg,[1]; [4],23%
"CN(C)CCOC(=O)COc1ccc(Cl)cc1 [Meclofenoxate, meclofenoxate, reference compound]",ILS at 30 mg/kg,[1]; [5],4%
same,ILS at 100 mg/kg,[1]; [5],22%
same,% inhibition of the effects of hypoxia: ATP,[2]; 300 mg/kg I.P.,59.7%
same,% inhibition of the effects of hypoxia: EC (energy content),[2]; 300 mg/kg I.P.,69.6%
"NC(=O)CN1CCCC1=O [Piracetam, piracetam, reference compound]",ILS at 100 mg/kg,[1]; [4],11%
"Cc1ncc(CSSCc2cnc(C)c(O)c2CO)c(CO)c1O [Pyritinol, pyritinol]",significance of the protection (brain survival time),"[1]; 100 mg/kg, mice, p<0.05",significant
same,ILS at 30 mg/kg,[1]; [3],13%
same,ILS at 100 mg/kg,[1]; [4],27%
same,% inhibition of the effects of hypoxia: ATP,[2]; 30 mg/kg I.P.,11.1%
same,% inhibition of the effects of hypoxia: EC (energy content),[2]; 30 mg/kg I.P.,16.6%
same,% inhibition of the effects of hypoxia: ATP,[2]; 100 mg/kg I.P.,23.3%
same,% inhibition of the effects of hypoxia: EC (energy content),[2]; 100 mg/kg I.P.,35.2%
same,% inhibition of the effects of hypoxia: ATP,[2]; [6],23%
same,% inhibition of the effects of hypoxia: EC (energy content),[2]; [6],35%
